We go through 26 molecules from US9532990B2 (Zhejiang DTRM Biopharma Co. Ltd., priority 2014, dated 2017).

Molecules are shown by their SMILES.

Sequence of BTK wild type (Q06187 whole entry): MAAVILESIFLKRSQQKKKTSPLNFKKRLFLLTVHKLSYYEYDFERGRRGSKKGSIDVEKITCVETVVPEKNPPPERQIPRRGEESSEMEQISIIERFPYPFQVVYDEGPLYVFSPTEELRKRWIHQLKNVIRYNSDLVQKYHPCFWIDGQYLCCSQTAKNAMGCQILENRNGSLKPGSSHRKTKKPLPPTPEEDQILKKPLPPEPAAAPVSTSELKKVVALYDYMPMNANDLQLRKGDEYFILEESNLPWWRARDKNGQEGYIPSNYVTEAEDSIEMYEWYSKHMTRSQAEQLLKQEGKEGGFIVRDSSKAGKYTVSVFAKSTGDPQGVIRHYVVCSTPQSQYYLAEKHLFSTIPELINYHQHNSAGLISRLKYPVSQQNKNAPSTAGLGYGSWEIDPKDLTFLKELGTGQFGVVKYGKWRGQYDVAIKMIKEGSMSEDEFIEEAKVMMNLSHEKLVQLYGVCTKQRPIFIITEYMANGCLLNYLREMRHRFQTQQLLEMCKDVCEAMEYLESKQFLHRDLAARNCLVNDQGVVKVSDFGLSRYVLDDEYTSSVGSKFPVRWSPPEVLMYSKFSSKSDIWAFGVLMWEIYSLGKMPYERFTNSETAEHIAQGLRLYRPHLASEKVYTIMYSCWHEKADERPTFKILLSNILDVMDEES

The target of one assay is BTK wild type (Homo sapiens (Human), UniProt Q06187). Nature of the assay: Inhibition assay of BTK kinase activity (HTRF). The following applies: all compounds with IC50 of less 10 nM; read-out: IC50 (BTK). In kind it is biochemical. As for the experimental part: Inhibition Assay of BTK Kinase Activity:
The enzyme reaction mixture of BTK wild type standard HTRF assay contained 1 nM BTK wild type, 1 μM biotin-TK1 peptide, and 30 μM ATP in a buffer. The enzyme reaction were carried out at room temperature for 60 minutes. […] The plates were incubated at room temperature for 60 minutes and then read in the Envision plate reader.
With `COC(=O)NC(=O)/C=C\C(=O)N1CCCC(n2nc(-c3ccc(Oc4c(F)c(F)cc(F)c4F)cc3F)c3c(N)ncnc32)C1` (stereo not shown) [Compound 47, (Z)-methyl 4-(3-(4-amino-3-(2-fluoro-4-(2,3,5,6-tetrafluorophenoxy)phenyl)-1H-pyrazolo[3,4-d]pyrimidin-1-yl)piperidin-1-yl)-4-oxobut-2-enoylcarbamate], the IC50 was below 10 nM.

On to `Nc1ncnc2c1c(-c1ccc(Oc3c(F)c(F)cc(F)c3F)cc1F)nn2C1CCCN(C(=O)CCl)C1` (stereo not shown) [Compound 61, 1-(3-(4-amino-3-(2-fluoro-4-(2,3,5,6-tetrafluorophenoxy)phenyl)-1H-pyrazolo[3,4-d]pyrimidin-1-yl)piperidin-1-yl)-2-chloroethanone], for which the IC50 is below 10 nM.

Staying with this assay, now noted: read-out: BTK IC50.
Turning to `C=CC(=O)N1CCCC(Cn2nc(-c3ccc(Oc4c(F)c(F)cc(F)c4F)cc3F)c3c(N)ncnc32)C1` (stereo not shown) [Compound 31, 1-(3-((4-amino-3-(2-fluoro-4-(2,3,5,6-tetrafluorophenoxy)phenyl)-1H-pyrazolo[3,4-d]pyrimidin-1-yl)methyl)piperidin-1-yl)prop-2-en-1-one], the IC50 is 15 nM.

`C=CC(=O)NC1CCC(Cn2nc(-c3ccc(Oc4c(F)c(F)cc(F)c4F)cc3F)c3c(N)ncnc32)C1` (stereo not shown) [Compound 32, N-(3-((4-amino-3-(2-fluoro-4-(2,3,5,6-tetrafluorophenoxy)phenyl)-1H-pyrazolo[3,4-d]pyrimidin-1-yl)methyl)cyclopentyl)acrylamide]: the IC50 stood at 7220 nM.

Consider `C=CC(=O)N1CCC[C@H](n2nc(-c3ccc(Oc4c(F)c(F)cc(F)c4F)cc3F)c3c(N)ncnc32)C1` [Compound 34, 1-((S)-3-(4-amino-3-(2-fluoro-4-(2,3,5,6-tetrafluorophenoxy)phenyl)-1H-pyrazolo[3,4-d]pyrimidin-1-yl)piperidin-1-yl)prop-2-en-1-one], for which the IC50 is 23 nM.

With `Nc1ncnc2c1c(-c1ccc(Oc3c(F)c(F)cc(F)c3F)cc1F)nn2C1CCCC(N2C(=O)C=CC2=O)C1` (stereo not shown) [Compound 36, 1-(3-(4-amino-3-(2-fluoro-4-(2,3,5,6-tetrafluorophenoxy)phenyl)-1H-pyrazolo[3,4-d]pyrimidin-1-yl)cyclohexyl)-1H-pyrrole-2,5-dione], the IC50 was 593 nM.

Regarding `Nc1ncnc2c1c(-c1ccc(Oc3c(F)c(F)cc(F)c3F)cc1F)nn2[C@H]1CC[C@H](N2C(=O)C=CC2=O)C1` [Compound 37, 1-((1 S,3S)-3-(4-amino-3-(2-fluoro-4-(2,3,5,6-tetrafluorophenoxy)phenyl)-1H-pyrazolo[3,4-d]pyrimidin-1-yl)cyclopentyl)-1H-pyrrole-2,5-dione], the half-inhibitory concentration (IC50) was 99 nM.

For the molecule `Nc1ncnc2c1c(-c1ccc(Oc3c(F)c(F)cc(F)c3F)cc1F)nn2CCCN1C(=O)C=CC1=O` [Compound 38, 1-(3-(4-amino-3-(2-fluoro-4-(2,3,5,6-tetrafluorophenoxy)phenyl)-1H-pyrazolo[3,4-d]pyrimidin-1-yl)propyl)-1H-pyrrole-2,5-dione], the IC50 came to 379 nM.

For the molecule `Nc1ncnc2c1c(-c1ccc(Oc3c(F)c(F)cc(F)c3F)cc1F)nn2C1CCC(N2C(=O)CSC2=O)CC1` (stereo not shown) [Compound 40, 3-(4-(4-amino-3-(2-fluoro-4-(2,3,5,6-tetrafluorophenoxy)phenyl)-1H-pyrazolo[3,4-d]pyrimidin-1-yl)cyclohexyl)thiazolidine-2,4-dione], the IC50 is 1640 nM.

In the case of `NC(=O)/C=C/C(=O)N1CCCC(n2nc(-c3ccc(Oc4c(F)c(F)cc(F)c4F)cc3F)c3c(N)ncnc32)C1` (stereo not shown) [Compound 41, (E)-4-(3-(4-amino-3-(2-fluoro-4-(2,3,5,6-tetrafluorophenoxy)phenyl)-1H-pyrazolo[3,4-d]pyrimidin-1-yl)piperidin-1-yl)-4-oxobut-2-enamide], the IC50 was 17 nM.

On to `CNC(=O)/C=C/C(=O)N1CCCC(n2nc(-c3ccc(Oc4c(F)c(F)cc(F)c4F)cc3F)c3c(N)ncnc32)C1` (stereo not shown) [Compound 42, (E)-4-(3-(4-amino-3-(2-fluoro-4-(2,3,5,6-tetrafluorophenoxy)phenyl)-1H-pyrazolo[3,4-d]pyrimidin-1-yl)piperidin-1-yl)-N-methyl-4-oxobut-2-enamide], for which the IC50 was 38 nM.

`N=C(N)NC(=O)N1CCCC(n2nc(-c3ccc(Oc4c(F)c(F)cc(F)c4F)cc3F)c3c(N)ncnc32)C1` (stereo not shown) [Compound 43, N-[3-[4-amino-3-[2-fluoro-4-(2,3,5,6-trifluorophenoxy)phenyl]-1H-pyrazolo[3,4-d]pyrimidin-1-yl]piperidine-1-carbonyl] formamidine]: the IC50 turned out to be 131 nM.

Regarding `CC(=O)CC(=O)N1CCCC(n2nc(-c3ccc(Oc4c(F)c(F)cc(F)c4F)cc3F)c3c(N)ncnc32)C1` (stereo not shown) [Compound 44, 1-(3-(4-amino-3-(2-fluoro-4-(2,3,5,6-tetrafluorophenoxy)phenyl)-1H-pyrazolo[3,4-d]pyrimidin-1-yl)piperidin-1-yl)butane-1,3-dione], the IC50 turned out to be 374 nM.

Regarding `COC(=O)NC(=O)/C=C\C(=O)N1CCCC(n2nc(-c3ccc(Oc4c(F)c(F)cc(F)c4F)cc3F)c3c(N)ncnc32)C1` (stereo not shown) [Compound 47, (Z)-methyl 4-(3-(4-amino-3-(2-fluoro-4-(2,3,5,6-tetrafluorophenoxy)phenyl)-1H-pyrazolo[3,4-d]pyrimidin-1-yl)piperidin-1-yl)-4-oxobut-2-enoylcarbamate], the IC50 was 6 nM.

Turning to `C/C=C(\C(=O)OC)C(=O)N1CCCC(n2nc(-c3ccc(Oc4c(F)c(F)cc(F)c4F)cc3F)c3c(N)ncnc32)C1` (stereo not shown) [Compound 48, (Z)-methyl 2-(3-(4-amino-3-(2-fluoro-4-(2,3,5,6-tetrafluorophenoxy)phenyl)-1H-pyrazolo[3,4-d]pyrimidin-1-yl)piperidine-1-carbonyl)but-2-enoate], the IC50 was determined as 964 nM.

With `C=C(C#N)C(=O)N1CCCC(n2nc(-c3ccc(Oc4c(F)c(F)cc(F)c4F)cc3F)c3c(N)ncnc32)C1` (stereo not shown) [Compound 49, 2-(3-(4-amino-3-(2-fluoro-4-(2,3,5,6-tetrafluorophenoxy)phenyl)-1H-pyrazolo[3,4-d]pyrimidin-1-yl)piperidine-1-carbonyl)acrylonitrile], the IC50 was found to be 509 nM.

On to `C=C(CO)C(=O)N1CCCC(n2nc(-c3ccc(Oc4c(F)c(F)cc(F)c4F)cc3F)c3c(N)ncnc32)C1` (stereo not shown) [Compound 50, 1-(3-(4-amino-3-(2-fluoro-4-(2,3,5,6-tetrafluorophenoxy)phenyl)-1H-pyrazolo[3,4-d]pyrimidin-1-yl)piperidin-1-yl)-2-(hydroxymethyl)prop-2-en-1-one], for which the IC50 amounted to 87 nM.

`Nc1ncnc2c1c(-c1ccc(Oc3c(F)c(F)cc(F)c3F)cc1F)nn2CCN1C(=O)C=CC1=O` [Compound 51, 1-(2-(4-amino-3-(2-fluoro-4-(2,3,5,6-tetrafluorophenoxy)phenyl)-1H-pyrazolo[3,4-d]pyrimidin-1-yl)ethyl)-1H-pyrrole-2,5-dione]: the IC50 was found to be 527 nM.

Regarding `CNC(=O)N1CCCC(n2nc(-c3ccc(Oc4c(F)c(F)cc(F)c4F)cc3F)c3c(N)ncnc32)C1` (stereo not shown) [Compound 52, 3-(4-amino-3-(2-fluoro-4-(2,3,5,6-tetrafluorophenoxy)phenyl)-1H-pyrazolo[3,4-d]pyrimidin-1-yl)-N-methylpiperidine-1-carboxamide], the IC50 was 60 nM.

Turning to `CN/C(=N\C#N)N1CCCC(n2nc(-c3ccc(Oc4c(F)c(F)cc(F)c4F)cc3F)c3c(N)ncnc32)C1` (stereo not shown) [Compound 54, 3-[4-amino-3-[2-fluoro-4-(2,3,5,6-fluorophenoxy)phenyl]-1H-pyrazolo[3,4-d]pyrimidine-1-yl]-N′-cyano-N-methyl-piperidine-1-carboxamidine], the IC50 worked out at 1620 nM.

With `CN/C(=C\[N+](=O)[O-])N1CCCC(n2nc(-c3ccc(Oc4c(F)c(F)cc(F)c4F)cc3F)c3c(N)ncnc32)C1` (stereo not shown) [Compound 55, 1-[3-[4-amino-3-[2-fluoro-4-(2,3,5,6-three-fluorophenoxy)phenyl]-1H-pyrazolo[3,4-d]pyrimidin-1-yl]-1-piperidinyl]-1-(methylamino)-2-nitro ethylene], the IC50 was 1740 nM.

For the molecule `CNC(=O)CN1CCCC(n2nc(-c3ccc(Oc4c(F)c(F)cc(F)c4F)cc3F)c3c(N)ncnc32)C1` (stereo not shown) [Compound 56, 2-(3-(4-amino-3-(2-fluoro-4-(2,3,5,6-tetrafluorophenoxy)phenyl)-1H-pyrazolo[3,4-d]pyrimidin-1-yl)piperidin-1-yl)-N-methylacetamide], the IC50 came out at 365 nM.

`CNC(=O)C(=O)N1CCCC(n2nc(-c3ccc(Oc4c(F)c(F)cc(F)c4F)cc3F)c3c(N)ncnc32)C1` (stereo not shown) [Compound 57, 2-(3-(4-amino-3-(2-fluoro-4-(2,3,5,6-tetrafluorophenoxy)phenyl)-1H-pyrazolo[3,4-d]pyrimidin-1-yl)piperidin-1-yl)-N-methyl-2-oxoacetamide]: the IC50 is 692 nM.

Regarding `Nc1ncnc2c1c(-c1ccc(Oc3c(F)c(F)cc(F)c3F)cc1F)nn2[C@@H]1CCN(C(=O)CCCl)C1` [Compound 58, 1-((R)-3-(4-amino-3-(2-fluoro-4-(2,3,5,6-tetrafluorophenoxy)phenyl)-1H-pyrazolo[3,4-d]pyrimidin-1-yl)pyrrolidin-1-yl)-3-chloropropan-1-one], the IC50 worked out at 148 nM.

In the case of `Nc1ncnc2c1c(-c1ccc(Oc3c(F)c(F)cc(F)c3F)cc1F)nn2C1CCCN(C(=O)c2c[nH]cn2)C1` (stereo not shown) [Compound 59, (3-(4-amino-3-(2-fluoro-4-(2,3,5,6-tetrafluorophenoxy)phenyl)-1H-pyrazolo[3,4-d]pyrimidin-1-yl)piperidin-1-yl)(1H-imidazol-4-yl)methanone], the IC50 came to 174 nM.

Turning to `Nc1ncnc2c1c(-c1ccc(Oc3c(F)c(F)cc(F)c3F)cc1F)nn2C1CCCN(C(=O)c2cccnc2)C1` (stereo not shown) [Compound 60, (3-(4-amino-3-(2-fluoro-4-(2,3,5,6-tetrafluorophenoxy)phenyl)-1H-pyrazolo[3,4-d]pyrimidin-1-yl)piperidin-1-yl)(pyridin-3-yl)methanone], the IC50 was 576 nM.

For `Nc1ncnc2c1c(-c1ccc(Oc3c(F)c(F)cc(F)c3F)cc1F)nn2C1CCCN(C(=O)CCl)C1` (stereo not shown) [Compound 61, 1-(3-(4-amino-3-(2-fluoro-4-(2,3,5,6-tetrafluorophenoxy)phenyl)-1H-pyrazolo[3,4-d]pyrimidin-1-yl)piperidin-1-yl)-2-chloroethanone], the IC50 stood at 0.8 nM.

Turning to `CN(C)CC(=O)N1CCCC(n2nc(-c3ccc(Oc4c(F)c(F)cc(F)c4F)cc3F)c3c(N)ncnc32)C1` (stereo not shown) [Compound 62, 1-(3-(4-amino-3-(2-fluoro-4-(2,3,5,6-tetrafluorophenoxy)phenyl)-1H-pyrazolo[3,4-d]pyrimidin-1-yl)piperidin-1-yl)-2-(dimethylamino)ethanone], the IC50 is 207 nM.
